In US11571405B2, “Compositions for improving sexual function” (INXO A/S, priority 2018, dated 2023):

How the values were obtained:
[1] = Inventors' findings on amounts of L-arginine and L-citrulline in the unit dosage; assay type: in vivo
Source text: Furthermore, higher amounts of L-arginine worsened the organoleptic properties of the unit dosage.
In an embodiment of the invention, the unit dosage comprises L-citrulline or a physiologically acceptable salt or hydrate thereof in the range from 0.5-3.0 g, such as 0.5-2.9 g, preferably 0.5-2.8 g, more preferably 0.5-2.7 g, such as 0.7-2.0 g, preferably 0.9-2.0 g, more preferably 1.1-2.0 g, even more preferably 1.3-2.0 g, most preferably 1.5-2.0 g.

[2] = oral; cited from earlier work

SMILES | amount above which side effects occurred in some instances (e.g. stomachache) [1] | most efficacious amount in the unit dosage [1] | level above which some adverse effects, most commonly diarrhea, have been seen [2] | amount above which efficacy of a unit dosage was not improved further (plateau of efficacy) [1]
N=C(N)NCCC[C@H](N)C(=O)O [L-arginine] | above 10 g | 6.0 g | above 20 g per day | 
NC(=O)NCCC[C@H](N)C(=O)O [L-citrulline] |  |  |  | above 2.0 g
